Assay results reported in patent US9012443B2 (Amgen Inc., priority 2011, dated 2015).

Tests used:
Nav 1.7 [1] = molecular target: T1, Nav 1.7 (Homo sapiens (Human), UniProt Q15858); assay: Nav 1.7 IWQ in vitro assay (IonWorks Quattro population patch-clamp); format: cell-based; conditions: 293 cells stably transfected with Nav 1.7; second part of table; read-out: Nav1.7 IWQ IC50 IP
Outline: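 HEK293 cells stably expressing Nav 1.7, recorded by automated population patch-clamp with a train of depolarizations producing increasing inactivation. Single compound concentration added during 3–8 min unclamped period, then same protocol repeated. Leak-corrected current at 26th pulse to −20 mV gave percent block (duplicate); IC50 fitted from concentration–block curves.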

Nav 1.7 [2] = molecular target: T1, Nav 1.7; assay: Nav 1.7 in vitro PX assay (PatchXpress whole cell voltage clamp); format: cell-based; conditions: 293 cells, human Nav1.7, partially inactivated state; read-out: Nav1.7 PX IC50 IP
Outline: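 HEK293 cells stably expressing human Nav1.7, whole-cell voltage clamp on PatchXpress, held at potential giving 20–50% inactivation; current elicited by 20 msec pulse to −10 mV.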

T1 sequence (Q15858 whole entry): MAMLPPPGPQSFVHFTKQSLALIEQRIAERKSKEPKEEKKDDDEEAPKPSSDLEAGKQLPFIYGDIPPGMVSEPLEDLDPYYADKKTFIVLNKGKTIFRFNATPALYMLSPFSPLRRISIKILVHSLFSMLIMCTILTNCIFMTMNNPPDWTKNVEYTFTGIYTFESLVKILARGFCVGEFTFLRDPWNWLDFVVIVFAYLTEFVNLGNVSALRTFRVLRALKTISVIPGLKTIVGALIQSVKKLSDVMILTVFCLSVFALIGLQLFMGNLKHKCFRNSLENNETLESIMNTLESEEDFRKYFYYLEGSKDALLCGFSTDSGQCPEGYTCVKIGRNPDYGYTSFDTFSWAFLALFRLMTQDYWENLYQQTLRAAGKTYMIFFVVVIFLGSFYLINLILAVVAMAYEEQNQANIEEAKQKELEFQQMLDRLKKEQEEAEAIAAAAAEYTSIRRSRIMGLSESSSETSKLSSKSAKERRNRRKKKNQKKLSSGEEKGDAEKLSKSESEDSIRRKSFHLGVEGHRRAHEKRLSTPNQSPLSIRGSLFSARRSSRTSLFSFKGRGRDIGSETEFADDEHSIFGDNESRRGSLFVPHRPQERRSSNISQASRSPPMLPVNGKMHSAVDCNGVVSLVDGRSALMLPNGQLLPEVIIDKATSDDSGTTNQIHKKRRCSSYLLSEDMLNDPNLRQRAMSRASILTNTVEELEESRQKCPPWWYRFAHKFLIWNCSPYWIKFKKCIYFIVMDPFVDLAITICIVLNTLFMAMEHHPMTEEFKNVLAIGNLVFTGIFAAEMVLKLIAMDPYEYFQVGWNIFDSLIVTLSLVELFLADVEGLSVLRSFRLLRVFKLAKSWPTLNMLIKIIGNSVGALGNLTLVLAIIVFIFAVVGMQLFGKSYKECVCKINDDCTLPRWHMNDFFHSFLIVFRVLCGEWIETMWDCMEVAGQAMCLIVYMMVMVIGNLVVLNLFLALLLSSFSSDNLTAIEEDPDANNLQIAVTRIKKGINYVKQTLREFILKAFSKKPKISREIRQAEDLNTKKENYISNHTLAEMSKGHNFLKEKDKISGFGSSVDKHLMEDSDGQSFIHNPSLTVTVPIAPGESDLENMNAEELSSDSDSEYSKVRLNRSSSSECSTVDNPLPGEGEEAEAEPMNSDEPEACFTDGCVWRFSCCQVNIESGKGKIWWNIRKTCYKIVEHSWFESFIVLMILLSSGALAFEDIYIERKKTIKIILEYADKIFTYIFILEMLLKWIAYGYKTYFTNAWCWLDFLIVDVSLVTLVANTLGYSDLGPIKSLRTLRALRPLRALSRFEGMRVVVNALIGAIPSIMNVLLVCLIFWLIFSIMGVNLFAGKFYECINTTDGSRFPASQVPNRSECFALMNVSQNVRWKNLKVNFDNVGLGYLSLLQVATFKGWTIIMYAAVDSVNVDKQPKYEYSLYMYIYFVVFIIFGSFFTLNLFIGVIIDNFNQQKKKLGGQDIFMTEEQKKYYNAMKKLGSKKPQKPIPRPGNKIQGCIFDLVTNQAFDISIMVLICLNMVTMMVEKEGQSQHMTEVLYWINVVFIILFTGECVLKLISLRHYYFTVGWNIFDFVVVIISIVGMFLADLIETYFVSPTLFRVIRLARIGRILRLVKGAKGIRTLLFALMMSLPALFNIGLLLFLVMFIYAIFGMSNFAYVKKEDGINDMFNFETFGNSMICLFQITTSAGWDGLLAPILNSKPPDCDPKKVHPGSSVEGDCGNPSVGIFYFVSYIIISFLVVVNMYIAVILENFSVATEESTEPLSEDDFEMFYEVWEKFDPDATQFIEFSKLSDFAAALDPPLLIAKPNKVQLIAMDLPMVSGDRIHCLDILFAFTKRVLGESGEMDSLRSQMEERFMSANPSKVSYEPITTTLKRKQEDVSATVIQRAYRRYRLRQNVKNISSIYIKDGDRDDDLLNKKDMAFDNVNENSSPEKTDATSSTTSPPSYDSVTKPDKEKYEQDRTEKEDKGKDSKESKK

Row | Compound | IC50 (Nav 1.7 [1]) | IC50 (Nav 1.7 [2])
1 | COc1cc(NS(=O)(=O)c2ccc3c(-c4ccc(C(F)(F)F)cc4OC)nccc3c2)ncn1 [Example 181, 1-(2-METHOXY-4-(TRIFLUOROMETHYL)PHENYL)-N-(6-METHOXYPYRIMIDIN-4-YL)ISOQUINOLINE-6-SULFONAMIDE] | 110 nM | 1560 nM
2 | COc1cc(C(F)(F)F)ccc1-c1nccc2cc(S(=O)(=O)Nc3ccnc(C)n3)ccc12 [Example 182, 1-(2-METHOXY-4-(TRIFLUOROMETHYL)PHENYL)-N-(2-METHYLPYRIMIDIN-4-YL)ISOQUINOLINE-6-SULFONAMIDE] | 4260 nM | 11700 nM
3 | COc1cc(C(F)(F)F)ccc1-c1nccc2cc(S(=O)(=O)Nc3ncncc3F)ccc12 [Example 183, N-(5-FLUOROPYRIMIDIN-4-YL)-1-(2-METHOXY-4-(TRIFLUOROMETHYL)PHENYL)ISOQUINOLINE-6-SULFONAMIDE] | 670 nM | 5870 nM
4 | COc1cc(C(F)(F)F)ccc1-c1nccc2cc(S(=O)(=O)Nc3nncs3)ccc12 [Example 184, 1-(2-METHOXY-4-(TRIFLUOROMETHYL)PHENYL)-N-(1,3,4-THIADIAZOL-2-YL)ISOQUINOLINE-6-SULFONAMIDE] | 320 nM | 912 nM
5 | COc1cc(C(F)(F)F)ccc1-c1nccc2cc(S(=O)(=O)Nc3cccnn3)ccc12 [Example 185, 1-(2-METHOXY-4-(TRIFLUOROMETHYL)PHENYL)-N-(PYRIDAZIN-3-YL)ISOQUINOLINE-6-SULFONAMIDE] | 270 nM | 2700 nM
6 | COc1cc(C(F)(F)F)ccc1-c1nccc2cc(S(=O)(=O)Nc3ncccn3)ccc12 [Example 188, 1-(2-METHOXY-4-(TRIFLUOROMETHYL)PHENYL)-N-(PYRIMIDIN-2-YL)ISOQUINOLINE-6-SULFONAMIDE] | 200 nM | 3540 nM
7 | O=S(=O)(Nc1nccs1)c1ccc2c(-c3ccc(F)cc3O)nccc2c1 [Example 189, 1-(4-FLUORO-2-HYDROXYPHENYL)-N-(THIAZOL-2-YL)ISOQUINOLINE-6-SULFONAMIDE] | 460 nM | 5960 nM
8 | COc1cc(C(F)(F)F)ccc1-c1nccc2cc(S(=O)(=O)Nc3ncc(C#N)s3)ccc12 [Example 197, N-(5-CYANOTHIAZOL-2-YL)-1-(2-METHOXY-4-(TRIFLUOROMETHYL)PHENYL)ISOQUINOLINE-6-SULFONAMIDE] | 2930 nM | 3060 nM
9 | COc1cc(C(F)(F)F)ccc1-c1nccc2cc(S(=O)(=O)Nc3ncc(F)s3)ccc12 [Example 198, N-(5-FLUOROTHIAZOL-2-YL)-1-(2-METHOXY-4-(TRIFLUOROMETHYL)PHENYL)ISOQUINOLINE-6-SULFONAMIDE 2,2,2-TRIFLUOROACETATE] | 40 nM | 422 nM
10 | COc1cc(-c2cccc(F)c2)ccc1-c1nccc2cc(S(=O)(=O)Nc3nccs3)ccc12 [Example 202, 1-(3′-FLUORO-3-METHOXY-[1,1′-BIPHENYL]-4-YL)-N-(THIAZOL-2-YL)ISOQUINOLINE-6-SULFONAMIDE 2,2,2-TRIFLUOROACETATE] | 340 nM | 508 nM
11 | COc1cc(-c2cnn(C)c2)ccc1-c1nccc2cc(S(=O)(=O)Nc3nccs3)ccc12 [Example 203, 1-(2-METHOXY-4-(1-METHYL-1H-PYRAZOL-4-YL)PHENYL)-N-(THIAZOL-2-YL)ISOQUINOLINE-6-SULFONAMIDE] | 310 nM | 3290 nM
12 | COc1cc(C#N)ccc1-c1nccc2cc(S(=O)(=O)Nc3ccncn3)ccc12 [Example 206, 1-(4-CYANO-2-METHOXYPHENYL)-N-(PYRIMIDIN-4-YL)ISOQUINOLINE-6-SULFONAMIDE] | 110 nM | 4420 nM
13 | O=S(=O)(Nc1nccs1)c1ccc2c(-c3ccn(-c4ccccc4)c3)nccc2c1 [Example 207, 1-(1-PHENYL-1H-PYRROL-3-YL)-N-(THIAZOL-2-YL)ISOQUINOLINE-6-SULFONAMIDE 2,2,2-TRIFLUOROACETATE] | 2100 nM | 7290 nM
14 | Cc1c(-c2nccc3cc(S(=O)(=O)Nc4nccs4)ccc23)cnn1-c1ccccc1 [Example 208, 1-(5-METHYL-1-PHENYL-1H-PYRAZOL-4-YL)-N-(THIAZOL-2-YL)ISOQUINOLINE-6-SULFONAMIDE 2,2,2-TRIFLUOROACETATE] | 2140 nM | 27500 nM
15 | Cc1cc(Cl)ccc1-c1nccc2cc(S(=O)(=O)Nc3nccs3)ccc12 [Example 209, 1-(4-CHLORO-2-METHYLPHENYL)-N-(THIAZOL-2-YL)ISOQUINOLINE-6-SULFONAMIDE 2,2,2-TRIFLUOROACETATE] | 60 nM | 385 nM
16 | Cc1cc(C#N)ccc1-c1nccc2cc(S(=O)(=O)Nc3nccs3)ccc12 [Example 210, 1-(4-CYANO-2-METHYLPHENYL)-N-(THIAZOL-2-YL)ISOQUINOLINE-6-SULFONAMIDE 2,2,2-TRIFLUOROACETATE] | 140 nM | 888 nM

Now those with a lower IC50 (Nav 1.7 [1]), led by results:

Row | IC50 (Nav 1.7 [1]) | IC50 (Nav 1.7 [2]) | Compound
17 | 10 nM | 255 nM | COc1ccccc1-c1nccc2cc(S(=O)(=O)Nc3ncns3)ccc12 [Example 194, 1-(2-METHOXYPHENYL)-N-(1,2,4-THIADIAZOL-5-YL)ISOQUINOLINE-6-SULFONAMIDE]
18 | 10 nM | 298 nM | COc1cc(C(F)(F)F)ccc1-c1nccc2cc(S(=O)(=O)Nc3nccs3)ccc12 [Example 196, 1-(2-METHOXY-4-(TRIFLUOROMETHYL)PHENYL)-N-(THIAZOL-2-YL)ISOQUINOLINE-6-SULFONAMIDE]
19 | 30 nM | 424 nM | COc1cc(-c2cccc(C#N)c2)ccc1-c1nccc2cc(S(=O)(=O)Nc3ccncn3)ccc12 [Example 200, 1-(3′-CYANO-3-METHOXY-[1,1′-BIPHENYL]-4-YL)-N-(PYRIMIDIN-4-YL)ISOQUINOLINE-6-SULFONAMIDE]
20 | 20 nM | 315 nM | COc1cc(Cl)ccc1-c1nccc2cc(S(=O)(=O)Nc3nccs3)ccc12 [Example 201, 1-(4-CHLORO-2-METHOXYPHENYL)-N-(THIAZOL-2-YL)ISOQUINOLINE-6-SULFONAMIDE]
21 | 30 nM | 614 nM | COc1cc(-c2cccnc2)ccc1-c1nccc2cc(S(=O)(=O)Nc3nccs3)ccc12 [Example 204, 1-(2-METHOXY-4-(PYRIDIN-3-YL)PHENYL)-N-(THIAZOL-2-YL)ISOQUINOLINE-6-SULFONAMIDE]
22 | 20 nM | 470 nM | COc1cc(C#N)ccc1-c1nccc2cc(S(=O)(=O)Nc3nccs3)ccc12 [Example 205, 1-(4-CYANO-2-METHOXYPHENYL)-N-(THIAZOL-2-YL)ISOQUINOLINE-6-SULFONAMIDE]
23 | 10 nM | 251 nM | COc1ccccc1-c1ncc(F)c2cc(S(=O)(=O)Nc3nccs3)ccc12 [Example 211, 4-FLUORO-1-(2-METHOXYPHENYL)-N-(THIAZOL-2-YL)ISOQUINOLINE-6-SULFONAMIDE]
24 | 30 nM | 269 nM | COc1cc(C(F)(F)F)ccc1-c1ncc(F)c2cc(S(=O)(=O)Nc3nccs3)ccc12 [Example 212, 4-FLUORO-1-(2-METHOXY-4-(TRIFLUOROMETHYL)PHENYL)-N-(THIAZOL-2-YL)ISOQUINOLINE-6-SULFONAMIDE]
25 | 10 nM | 360 nM | COc1cc(F)ccc1-c1ncc(F)c2cc(S(=O)(=O)Nc3nccs3)ccc12 [Example 213, 4-FLUORO-1-(4-FLUORO-2-METHOXYPHENYL)-N-(THIAZOL-2-YL)ISOQUINOLINE-6-SULFONAMIDE]
26 | 20 nM | 211 nM | COc1cc(C#N)ccc1-c1ncc(F)c2cc(S(=O)(=O)Nc3nccs3)ccc12 [Example 214, 1-(4-CYANO-2-METHOXYPHENYL)-4-FLUORO-N-(THIAZOL-2-YL)ISOQUINOLINE-6-SULFONAMIDE]
